Laboratory results: patent US11559526B2, “Drug effective for lymphogenous drug administrating method” (TOHOKU UNIVERSITY, priority 2016, dated 2023)
Counter-ions that a name gives are not always drawn.

Tests used:
KM-Luc/GFP cells = experiment: Anticancer activity after administration into the accessory axillary lymph node, mouse model of proper axillary lymph node metastasis (KM-Luc/GFP), luciferase imaging; assay type: in vivo; parameters: key to Luciferase activity ratio calculated by Expression 3: day9/day6 normalized luciferase ratio, 0 μg/g set to 100; settings: for Luciferase activity ratio calculated by Expression 3: 0 μg/g set to 100
Protocol: As a mouse model of lymphadenopathy, MXH10/Mo/lpr/lpr (MXH10/Mo/lpr) mice were prepared in accordance with the method previously reported (J Immunol Methods 2013; 389 (1-2): 69-78 doi 10.1016/j.jim.2013.01.004). In the following Examples, in total, 5 male and female model mice aged 15 to 18 weeks were used.
Mouse fibroblast-derived KM-Luc/GFP cells were prepared in accordance with the method previously reported (PLoS One 2013; 8 (2): e55797 doi 10.1371/journal.pone.0055797). The KM-Luc/GFP cells were obtained by transfecting MRL/MpTn-gld/gld mouse fibroblast-derived cancer cells, MRL/N1 cells, with pEGFPLuc plasmid. The KM-Luc/GFP cells constantly express a luciferase gene and a green fluorescent gene. In the following Examples, the cells were cultured in Dulbecco's modified Eagle's medium (manufactured by Sigma-Aldrich) containing 10% FBS (fetal bovine serum), 1% L-Glutamine-P.S. solution (manufactured by Thermo Fisher Scientific) and 0.5% G418 and put in use.
(§1) KM-Luc/GFP (cancer) cells, which were prepared by thawing the cells stored at −80° C. and thereafter sub-culturing them twice in total, were suspended in PBS (phosphate buffered saline) and the concentration thereof was controlled to be 1.0×10^6 cells/mL. Thereafter, the cell suspension was mixed with Matrigel (basement membrane matrix, manufactured by Becton, Dickinson and Co.) and diluted to a concentration of 3.3×10^5 cells/mL, and then, the resultant (60 μL) was inoculated into mouse subiliac lymph node (FIG. 1). The day when the cancer cells were inoculated was specified as day 0.
(§2) Using a biological fluorescence imaging system (IVIS manufactured by Caliper Life Science), the growth rates of cancer cells in the subiliac lymph node and proper axillary lymph node were determined on day 0, day 6 and day 9 after inoculation of the cancer cells. 200 μL of luciferin (manufactured by Promega), the concentration of which was controlled to be 15 mg/mL, was injected into the abdominal cavity of the mouse. Ten minutes later, luciferase activity was determined using the IVIS.
Of the mice on day 6 after cancer cell inoculation, mice having a luciferase activity of 1.0×10^6 photons/sec or more in the proper axillary lymph node were selected, and 120 μL of 5-FU was administered to the accessory axillary lymph node at a rate of 10 μL/min by use of a syringe pump (KDS100, manufactured by Muromachi) (FIG. 1).
The luciferase activities on day 6 and day 9 were normalized in accordance with the following [Expression 1]. Thereafter, the ratio of the normalized luciferase activity on day 9 to that on day 6 was calculated in accordance with the following [Expression 2]. The ratio of the normalized luciferase activity on day 9 to that on day 6 at each administration concentration of 5-FU, when the ratio of the normalized luciferase activity on day 9 to that on day 6 at administration of 0 μg/g was set to 100, was calculated in accordance with the following [Expression 3]. Normalized luciferase activity on day 6 or day 9=((luciferase activity on day 6 or day 9)/(luciferase activity on day 0)) [Expression 1] Ratio of normalized luciferase activity on day 9 to that on day 6=((normalized luciferase activity on day 9)/(normalized luciferase activity on day 6)) [Expression 2] Ratio of normalized luciferase activity on day 9 to that on day 6 at each administration concentration of 5-FU, when the ratio of normalized luciferase activity on day 9 to that on day 6 at administration of 0 μg/g was set to 100,=((ratio of normalized luciferase activity on day 9 to that on day 6 at each administration concentration of 5-FU)/(ratio of normalized luciferase activity on day 9 to that on day 6 at administration of 0 μg/g)×100) [Expression 3] 3. Results […]
The same method as in Example 1 was employed except that the test drug to be administered to the accessary axillary lymph node was changed to doxorubicin.

FM3A-Luc cells = experiment: Anticancer activity of docetaxel administered into a lymph node, mouse model of proper axillary lymph node metastasis (FM3A-Luc), luciferase imaging; assay type: in vivo; settings: for Luciferase activity ratio calculated by Expression 6 (day 6^T): day 6^T to day −1^T
Protocol: Mouse breast cancer cell-derived FM3A-Luc cells were prepared in accordance with the method previously reported (J Immunol Methods 2013 Mar 29; 389 (1-2): 69-78. doi: 10.1016/j.jim.2013.01.004.). The FM3A-Luc cells were obtained by gene-introduction of pGL4.51 into FM3A cells by means of electroporation and constantly express a luciferase gene. In the following Examples, the cells were cultured in RPMI-1640 (manufactured by Sigma-Aldrich) containing 10% FBS (fetal bovine serum), 1% of an L-Glutamine-P.S. solution (manufactured by Theimo Fisher Scientific) and 0.5% of G418 and put in use.
As docetaxel, taxotere for intravenous infusion, 80 mg (manufactured by Sanofi K. K.) was used. Taxotere for intravenous infusion 80 mg (2 mL) was dissolved in 13% ethanol (6 mL) to prepare a 10 mg/mL stock solution. Thereafter, the stock solution was dissolved with sterile water in such a way that the concentration per mouse body-weight became 0 μg/g, 1 μg/g and 10 μg/g.
as §1, with “FM3A-Luc (cancer) cells,” for “KM-Luc/GFP (cancer) cells,”, “thawing the cancer cells stored” for “thawing the cells stored”, “were suspended with PBS (phosphate” for “were suspended in PBS (phosphate”, “and diluted up to a” for “and diluted to a”
as §2, with “7, day 14, day 17, day 20, day 23, day 26” for “6”, “29” for “9”
To a mouse confirmed to have a luciferase activity of 1.0×10^6 photons/sec or more in the proper axillary lymph node, docetaxel (120 μL) was administered to the accessory axillary lymph node on the day following confirmation at a rate of 10 μL/min by use of a syringe pump (KDS100, manufactured by Muromachi) (FIG. 1).
The day when docetaxel was administered was defined as day 0^T. The luciferase activity on day 3^T (3 days after administration of docetaxel) and the luciferase activity on day 6^T (6 days after administration of docetaxel) were normalized in accordance with the following [Expression 4]. Thereafter, the ratio of the normalized luciferase activity on day 3^T or day 6^T to that on day −1^T (the day when the luciferase activity in the proper axillary lymph node was confirmed to be 1.0×10^6 photons/sec or more and the day before docetaxel administration) was calculated in accordance with the following [Expression 5]. The ratio of the normalized luciferase activity on day 3^T or day 6^T to that on day −1^T at each administration concentration of docetaxel, when the ratio of the normalized luciferase activity on day 3^T or day 6^T to that on day −1^T at administration of 0 μg/g was set to 100, was calculated in accordance with the following [Expression 6]. […]

cancer cell strain = settings: cited from earlier work
[1] = test system: cancer-containing proper axillary lymph node (PALN); settings: administration through the subiliac lymph node (SiLN); cited from earlier work
[2] = 0.1 μg/g into accessory axillary lymph node, day 9 to day 6 ratio in proper axillary lymph node
[3] = 1 μg/g into accessory axillary lymph node, day 9 to day 6 ratio
[4] = 10 μg/g into accessory axillary lymph node, day 9 to day 6 ratio

SMILES: O=c1[nH]cc(F)c(=O)[nH]1 [5-FU, 5-fluorouracil]
- Luciferase activity ratio calculated by Expression 3 (KM-Luc/GFP cells; [2]): 9.27
- Luciferase activity ratio calculated by Expression 3 (KM-Luc/GFP cells; [3]): 9.12
- Luciferase activity ratio calculated by Expression 3 (KM-Luc/GFP cells; [4]): 1.49
- tumor regression effect (KM-Luc/GFP cells; dose 0.1 μg/g): ≥ 90%

SMILES: CCc1c2c(nc3ccc(OC(=O)N4CCC(N5CCCCC5)CC4)cc13)-c1cc3c(c(=O)n1C2)COC(=O)[C@]3(O)CC [CPT-11, irinotecan hydrochloride]
- Luciferase activity ratio calculated by Expression 3 (KM-Luc/GFP cells; 0.5 μg/g into accessory axillary lymph node, day 9 to day 6 ratio): 6.06
- Luciferase activity ratio calculated by Expression 3 (KM-Luc/GFP cells; 5 μg/g into accessory axillary lymph node, day 9 to day 6 ratio): 3.03
- tumor regression effect (KM-Luc/GFP cells; dose 0.5 μg/g): ≥ 90%

SMILES: CC(=O)O[C@@]12CO[C@@H]1C[C@H](O)[C@@]1(C)C(=O)[C@H](O)C3=C(C)[C@@H](OC(=O)[C@H](O)[C@@H](NC(=O)OC(C)(C)C)c4ccccc4)C[C@@](O)([C@@H](OC(=O)c4ccccc4)[C@H]21)C3(C)C [Docetaxel, docetaxel]
- Luciferase activity ratio calculated by Expression 6 (day 6^T) (FM3A-Luc cells; 1 μg/g into accessory axillary lymph node, 0 μg/g set to 100): 7.5
- Luciferase activity ratio calculated by Expression 6 (day 3^T) (FM3A-Luc cells; 10 μg/g into accessory axillary lymph node, day 3^T to day −1^T, 0 μg/g set to 100): 16.2
- Luciferase activity ratio calculated by Expression 6 (day 6^T) (FM3A-Luc cells; 10 μg/g into accessory axillary lymph node, 0 μg/g set to 100): 1.7
- tumor regression effect (FM3A-Luc cells; dose 1 μg/g, day 6 after initiation of treatment): ≥ 90%
- tumor reduction ratio (FM3A-Luc cells; dose 10 μg/g): ≥ 80%
- cell growth inhibitory activity of docetaxel compared with doxorubicin (cancer cell strain): almost equal to that of doxorubicin

SMILES: COc1cccc2c1C(=O)c1c(O)c3c(c(O)c1C2=O)C[C@@](O)(C(=O)CO)C[C@@H]3O[C@H]1C[C@H](N)[C@H](O)[C@H](C)O1 [Doxorubicin, doxorubicin hydrochloride]
- anticancer effect in the proper axillary lymph node [1]: resulted in an anticancer effect
- cell growth inhibitory activity (GI50 value) of doxorubicin, times as high as those of 5-FU and CPT-11 (cancer cell strain): 10 to 1,000 times
- Luciferase activity ratio calculated by Expression 3 (KM-Luc/GFP cells; [2]): 40.9
- Luciferase activity ratio calculated by Expression 3 (KM-Luc/GFP cells; [3]): 43.2
- Luciferase activity ratio calculated by Expression 3 (KM-Luc/GFP cells; [4]): 75.0
- best tumor reduction ratio (KM-Luc/GFP cells; dose 1 μg/g): less than 60%
- tumor reduction ratio (KM-Luc/GFP cells; dose 10 μg/g): about 25%
